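A five-concentration, 48-hour dose response in 96-well plates underlies each endpoint, interpolated linearly between surrounding concentrations. At the GI50, growth is halved.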 The source made the active and inactive calls. Rule as the data show it: active = GI50 up to about 1.1 µM and inactive = higher.
Key:
Assay in all cases: NCI tumour cell line growth inhibition, 48 h
786-0 = tested on: 786-0
A549 = tested on: A549
ACHN = tested on: ACHN
COLO 205 = tested on: COLO 205
HCC 2998 = tested on: HCC 2998
MOLT-4 = tested on: MOLT-4
NCI-H23 = tested on: NCI-H23
NCI-H460 = tested on: NCI-H460
OVCAR-8 = tested on: OVCAR-8
SNB-19 = tested on: SNB-19
SNB-75 = tested on: SNB-75
TK-10 = tested on: TK-10
U-251 = tested on: U-251
HCT-116 = tested on: HCT-116
HOP-92 = tested on: HOP-92
UACC-257 = tested on: UACC-257
HOP-62 = tested on: HOP-62

SMILES	GI50 (786-0)	GI50 (A549)	GI50 (ACHN)	GI50 (COLO 205)	GI50 (HCC 2998)	GI50 (MOLT-4)	GI50 (NCI-H23)	GI50 (NCI-H460)	GI50 (OVCAR-8)	GI50 (SNB-19)	GI50 (SNB-75)	GI50 (TK-10)	GI50 (U-251)	GI50 (HCT-116)	GI50 (HOP-92)	GI50 (UACC-257)	GI50 (HOP-62)
Cn1c2c(c3ccccc31)C1CCCCC1C1C(=O)NC(=O)C21 (stereo not given)	65 µM (inactive)	43.3 µM (inactive)	35.2 µM (inactive)	39.9 µM (inactive)	52.2 µM (inactive)	21.8 µM (inactive)	> 100 µM (inactive)	34.8 µM (inactive)	66.2 µM (inactive)	> 100 µM (inactive)	33.1 µM (inactive)	> 100 µM (inactive)	> 100 µM (inactive)				
COCOCCC#CCO	> 100 µM (inactive)	> 100 µM (inactive)	> 100 µM (inactive)		> 100 µM (inactive)	> 100 µM (inactive)	32.4 µM (inactive)	> 100 µM (inactive)	> 100 µM (inactive)	> 100 µM (inactive)	> 100 µM (inactive)	> 100 µM (inactive)	> 100 µM (inactive)	88.9 µM (inactive)	> 100 µM (inactive)	> 100 µM (inactive)	
Cc1cc(N(CCC#N)CCC#N)ccc1/C=C(/NC(=O)/C=C/c1ccccc1)C(N)=O	> 100 µM (inactive)	> 100 µM (inactive)	> 100 µM (inactive)	> 100 µM (inactive)	> 100 µM (inactive)	> 100 µM (inactive)	> 100 µM (inactive)	> 100 µM (inactive)	> 100 µM (inactive)	> 100 µM (inactive)	> 100 µM (inactive)	> 100 µM (inactive)	> 100 µM (inactive)	> 100 µM (inactive)		> 100 µM (inactive)	> 100 µM (inactive)
OCC(O)C(O)C(O)c1nn(-c2ccccc2)c2nc3cc(Cl)c(Cl)cc3nc12 (stereo not given)	32 µM (inactive)	26.7 µM (inactive)	25.1 µM (inactive)	44.1 µM (inactive)	32.9 µM (inactive)	24.5 µM (inactive)	49.8 µM (inactive)	44.1 µM (inactive)	70.8 µM (inactive)	74.6 µM (inactive)	20.3 µM (inactive)	36.1 µM (inactive)	70.5 µM (inactive)	54.5 µM (inactive)		63.1 µM (inactive)	42.1 µM (inactive)
COC(=O)/C(=C\c1ccc(N(CCC#N)CCC#N)cc1)NC(=O)c1cc([N+](=O)[O-])ccc1Cl	> 100 µM (inactive)	> 100 µM (inactive)	> 100 µM (inactive)	> 100 µM (inactive)	> 100 µM (inactive)	> 100 µM (inactive)	> 100 µM (inactive)	> 100 µM (inactive)	> 100 µM (inactive)	> 100 µM (inactive)	> 100 µM (inactive)	> 100 µM (inactive)	> 100 µM (inactive)	> 100 µM (inactive)		> 100 µM (inactive)	> 100 µM (inactive)
Cc1ccc(NC(=O)CC/C(CC(=O)C(C)(C)C)=N/NC(=O)C[N+](C)(C)C)cc1C	18.2 µM (inactive)	21.7 µM (inactive)	> 100 µM (inactive)	> 100 µM (inactive)	> 100 µM (inactive)	> 100 µM (inactive)	> 100 µM (inactive)	> 100 µM (inactive)	> 100 µM (inactive)	> 100 µM (inactive)		> 100 µM (inactive)	> 100 µM (inactive)	> 100 µM (inactive)		> 100 µM (inactive)	> 100 µM (inactive)
CC(=O)OC1C2CCC1C1C2C2(Cl)C(Cl)=C(Cl)C1(Cl)C2(Cl)Cl (stereo not given)	14.1 µM (inactive)	10.5 µM (inactive)	12.2 µM (inactive)	15 µM (inactive)		11 µM (inactive)	12.2 µM (inactive)	14.3 µM (inactive)	15.4 µM (inactive)	15.1 µM (inactive)	14.7 µM (inactive)	15.3 µM (inactive)	13.3 µM (inactive)	11.2 µM (inactive)	11.2 µM (inactive)	13.2 µM (inactive)	15.5 µM (inactive)
OC12c3ccccc3C1CCCCC2N1CCCC1 (stereo not given)	> 100 µM (inactive)	> 100 µM (inactive)	> 100 µM (inactive)	> 100 µM (inactive)		> 100 µM (inactive)	> 100 µM (inactive)	> 100 µM (inactive)	> 100 µM (inactive)	> 100 µM (inactive)	> 100 µM (inactive)	> 100 µM (inactive)	> 100 µM (inactive)	> 100 µM (inactive)		> 100 µM (inactive)	> 100 µM (inactive)
CCN(CC)CCCC(C)Nc1ccnc2ccc3nn(C)nc3c12 (stereo not given)	37.3 µM (inactive)	47.9 µM (inactive)	65.3 µM (inactive)	28.6 µM (inactive)	40.2 µM (inactive)	25.3 µM (inactive)	> 100 µM (inactive)	32.8 µM (inactive)	41.4 µM (inactive)	> 100 µM (inactive)	> 100 µM (inactive)	> 100 µM (inactive)	65.6 µM (inactive)	26.2 µM (inactive)		36 µM (inactive)	76.6 µM (inactive)
CCOP(=O)(OCC)C1CCCCOC1=O (stereo not given)	> 100 µM (inactive)	> 100 µM (inactive)	> 100 µM (inactive)	> 100 µM (inactive)	> 100 µM (inactive)	33 µM (inactive)	> 100 µM (inactive)	51.2 µM (inactive)	> 100 µM (inactive)	> 100 µM (inactive)	> 100 µM (inactive)	> 100 µM (inactive)	> 100 µM (inactive)	> 100 µM (inactive)		> 100 µM (inactive)	> 100 µM (inactive)
O=C(Cn1ccnc1[N+](=O)[O-])NCc1ccc(F)cc1	> 100 µM (inactive)	> 100 µM (inactive)	> 100 µM (inactive)	> 100 µM (inactive)		> 100 µM (inactive)	> 100 µM (inactive)	> 100 µM (inactive)	> 100 µM (inactive)	> 100 µM (inactive)	68.9 µM (inactive)	> 100 µM (inactive)	> 100 µM (inactive)		> 100 µM (inactive)	> 100 µM (inactive)	> 100 µM (inactive)
CC1=C(C(=O)CC(=O)C(=O)Nc2ccccc2)Sc2ccccc2N1	> 100 µM (inactive)	> 100 µM (inactive)	> 100 µM (inactive)	> 100 µM (inactive)		> 100 µM (inactive)	> 100 µM (inactive)	> 100 µM (inactive)	> 100 µM (inactive)	> 100 µM (inactive)			> 100 µM (inactive)	> 100 µM (inactive)	2.84 µM (inactive)	> 100 µM (inactive)	> 100 µM (inactive)
COC(=O)C12C(=O)O[C@H](C)C1(O)C(C)C(=O)N2C (stereo not given in full)	> 100 µM (inactive)			> 100 µM (inactive)	> 100 µM (inactive)	> 100 µM (inactive)	> 100 µM (inactive)		> 100 µM (inactive)	> 100 µM (inactive)		> 100 µM (inactive)	> 100 µM (inactive)	> 100 µM (inactive)	< 0.01 µM (active)		> 100 µM (inactive)

— ChEMBL document CHEMBL1201862, “PubChem BioAssay data set” (2004)
